Assay results published in the NIST ThermoML archive (doi:10.1021/je500275j).

Test: xn = mol fraction of the nth substance listed
Conditions: 100 kPa, Liquid; for viscosity: Falling or rolling sphere viscometry; for mass density: Vibrating tube method

C1CCC(C2CCCCC2)CC1 [1,1'-bicyclohexyl] + CC1CCCCC1
Conditions	mass density [kg/m3]	viscosity [mPa·s]
293.15 K, x1 = 0.0999	786.65	0.882
293.15 K, x1 = 0.2015	802.4	1.053
293.15 K, x1 = 0.3012	816.38	1.269
293.15 K, x1 = 0.4007	828.96	1.513
293.15 K, x1 = 0.4994	840.4	1.77
293.15 K, x1 = 0.5986	850.98	2.12
293.15 K, x1 = 0.7002	861.06	2.507
293.15 K, x1 = 0.7998	870.05	2.935
293.15 K, x1 = 0.8998	878.51	3.428
293.15 K, x1 = 1	886.39	4.017
298.15 K, x1 = 0.0999	782.49	0.821
298.15 K, x1 = 0.2015	798.27	0.977
298.15 K, x1 = 0.3012	812.39	1.173
298.15 K, x1 = 0.4007	825.06	1.389
298.15 K, x1 = 0.4994	836.55	1.616
298.15 K, x1 = 0.5986	847.21	1.923
298.15 K, x1 = 0.7002	857.36	2.261
298.15 K, x1 = 0.7998	866.41	2.628
298.15 K, x1 = 0.8998	874.87	3.05
298.15 K, x1 = 1	882.79	3.541
303.15 K, x1 = 0.0999	778.28	0.768
303.15 K, x1 = 0.2015	794.17	0.905
303.15 K, x1 = 0.3012	808.39	1.086
303.15 K, x1 = 0.4007	821.14	1.28
303.15 K, x1 = 0.4994	832.74	1.49
303.15 K, x1 = 0.5986	843.46	1.754
303.15 K, x1 = 0.7002	853.63	2.056
303.15 K, x1 = 0.7998	862.73	2.367
303.15 K, x1 = 0.8998	871.23	2.73
303.15 K, x1 = 1	879.19	3.145
308.15 K, x1 = 0.0999	774.06	0.722
308.15 K, x1 = 0.2015	790.07	0.85
308.15 K, x1 = 0.3012	804.38	1.01
308.15 K, x1 = 0.4007	817.21	1.185
308.15 K, x1 = 0.4994	828.85	1.373
308.15 K, x1 = 0.5986	839.63	1.609
308.15 K, x1 = 0.7002	849.8	1.871
308.15 K, x1 = 0.7998	859.05	2.143
308.15 K, x1 = 0.8998	867.6	2.459
308.15 K, x1 = 1	875.6	2.817
313.15 K, x1 = 0.0999	769.83	0.679
313.15 K, x1 = 0.2015	785.95	0.795
313.15 K, x1 = 0.3012	800.36	0.942
313.15 K, x1 = 0.4007	813.28	1.102
313.15 K, x1 = 0.4994	824.98	1.268
313.15 K, x1 = 0.5986	835.85	1.474
313.15 K, x1 = 0.7002	846.15	1.708
313.15 K, x1 = 0.7998	855.37	1.953
313.15 K, x1 = 0.8998	863.97	2.227
313.15 K, x1 = 1	872.01	2.54
318.15 K, x1 = 0.0999	765.59	0.641
318.15 K, x1 = 0.2015	781.82	0.747
318.15 K, x1 = 0.3012	796.34	0.882
318.15 K, x1 = 0.4007	809.35	1.025
318.15 K, x1 = 0.4994	821.14	1.177
318.15 K, x1 = 0.5986	832.06	1.37
318.15 K, x1 = 0.7002	842.45	1.582
318.15 K, x1 = 0.7998	851.7	1.788
318.15 K, x1 = 0.8998	860.35	2.032
318.15 K, x1 = 1	868.43	2.302
